The record followed here is paper PMC9967152 (International Journal of Molecular Sciences, 2023).

“Also recorded” adds a separate entry of the source. Where a SMILES comes first, the peptide text is derived from it. [ ]: non-standard residue; d: D form. The star is where a group is joined. Daunorubicin(13-NOCH2CO) = COc1cccc2c1C(=O)c1c(O)c3c(c(O)c1C2=O)C[C@@](O)(C(C)=NOCC(=O)*)C[C@@H]3O[C@H]1C[C@H](N)[C@H](O)[C@H](C)O1; Sta = CC(C)C[C@H](N)[C@@H](O)CC(=O)O; Nle = CCCC[C@H](N)C(=O)O; Aib = CC(C)(N)C(=O)O; βAla = NCCC(=O)O

Series [1] in a line: rat liver lysosomal homogenate. The note with it: male Wistar rats, 37 °C, up to 72 h.
A short description of series [2]: mouse plasma. The settings on record: 37 °C, up to 24 h.
A short description of series [3]: incomplete DMEM. The note with it: 37 °C, up to 3 h.
The test system of series [4] is MDA-MB-453 human metastatic epithelial breast carcinoma cells. In words: MTT assay, in vitro cytostatic effect. In kind it is cell-based. The settings on record: 24 h treatment at 3.125–25 µM, then cultured up to 72 h, mean ± SD, n = 2 independent experiments with four parallels. Here is the method:
(§1) Cells were distributed into 96-well tissue culture plates with an initial cell number of 5.0 × 10^3 per well. After 24 h incubation at 37 °C, the cells were treated with the compounds in 200 µL final volume containing 1.0 v/v% DMSO and 10% H2O. […] After incubation, the cells were washed twice with a serum-free medium. To determine the in vitro cytostatic effect, the cells were further cultured up to 72 h in a 10% serum-containing medium. A solution of 3-(4,5-dimethylthiazol-2-yl)-2,5-diphenyltetrazolium bromide and MTT-solution, (45 µL, 2 mg/mL, final concentration: […]) were added to each well. The respiratory chain [67] and other electron transport systems reduce MTT, and thereby form non-water-soluble violet formazan crystals within the cell. […] After 3 h of incubation, the cells were centrifuged for 5 min at 1000 g and the supernatant was removed. The obtained formazan crystals were dissolved in DMSO (100 μL) and the optical density (OD) of the samples was measured at λ = 540 and 620 nm, respectively, using ELISA Reader (iEMS Reader, Labsystems, Finland). OD620 values were subtracted from OD540 values. The percentage of cytostasis was calculated by using the following equation:Cytostatic effect (%) = [1 − (ODtreated/ODcontrol)] × 100(1)
(§2) Values of ODtreated and ODcontrol correspond to the optical densities of the treated and the control cells, respectively. In each case, two independent experiments were carried out with four parallel measurements. The 50% inhibitory concentration (IC50) values were determined from the dose–response curves. The curves were defined using Microcal™ Origin 2018 software: cytostasis was plotted as a function of concentration, fitted to a sigmoidal curve, and based on this curve, the half-maximal inhibitory concentration (IC50) value was determined. IC50 represents the concentration of a compound that is required for 50% inhibition in vitro and is expressed in micromolar units.

Series [5] has as its system PC-3 human prostate adenocarcinoma cells. In words: MTT assay, in vitro cytostatic effect. In kind it is cell-based. The note with it: 24 h treatment at 3.125–25 µM, then cultured up to 72 h, mean ± SD, n = 2 independent experiments with four parallels. Here is the method:
as §1, §2
Background: Tetrazolium dyes change colour on reduction, which living cells bring about.

In series [6] the test system is MDA-MB-231 human breast adenocarcinoma cells. In words: MTT assay, in vitro cytostatic effect. It is filed as cell-based. The settings on record: 24 h treatment at 3.125–25 µM, then cultured up to 72 h, mean ± SD, n = 2 independent experiments with four parallels. Here is the method: as §1, §2

As for Dau=Aoa-LRRY-fQWAVGH-Sta-L, in series [1], the cleaved bond result is listed as “Leu-Arg, 15 min” and the fragment found entry is on record as “Dau=Aoa-LR-OH; also recorded: H2N-RY-fQWAVGH-Sta-L-NH2; also recorded: H2N-VGH-Sta-L-NH2; also recorded: H2N-GH-Sta-L-NH2; also recorded: H2N-RY-fQW-OH; also recorded: H2N-RYfQ-OH”. For the same compound, the fragment found result in series [2] is given as “Dau=Aoa-Leu-OH (M1), minor, 24 h”. Also, in series [3], the not cleaved entry was “highly stable for 1.5 h; no significant loss (<20%) after 3 h”.
In general, IC50 refers to the concentration that inhibits the measured activity by half. Consider `CCCC[C@H](NC(=O)C[C@H](O)[C@H](CC(C)C)NC(=O)[C@H](Cc1c[nH]cn1)NC(=O)CCNC(=O)[C@@H](NC(=O)[C@H](C)NC(=O)[C@H](Cc1c[nH]c2ccccc12)NC(=O)[C@H](CCC(N)=O)NC(=O)[C@@H](Cc1ccccc1)NC(C)=O)C(C)C)C(N)=O` [FP2] (Ac-[dF]QWAV[βAla]H[Sta][Nle]-NH2), for which the IC50 in series [4], in series [5] and in series [6] was above 100 µM throughout.
Take Dau=Aoa-LRRY-fQWAV-β-Ala-H-Sta-Nle: in series [1], the cleaved bond result is given as “Leu-Arg, 15 min” and the fragment found result is “Dau=Aoa-LR-OH; also recorded: H2N-RY-fQWAV-βAla-H-Sta-Nle-NH2; also recorded: H2N-Y-fQWAV-βAla-H-Sta-Nle-NH2; also recorded: H2N-RY-fQW-OH”. Besides, the fragment found entry in series [2] was “Dau=Aoa-Leu-OH (M1), minor, 24 h”. In addition, the not cleaved entry in series [3] is “highly stable for 1.5 h; no significant loss (<30%) after 3 h”.
On to Dau=Aoa-LRRY-QWAVGHL-Nle, for which, in series [1], the cleaved bond result is “Leu-Arg, 15 min” and the fragment found entry is recorded as “Dau=Aoa-LR-OH; also recorded: Dau=Aoa-LRR-OH”. The fragment found result in series [2] was “Dau=Aoa-Leu-OH (M1), minor, 2 h”. In addition, in series [3], the not cleaved result was “highly stable for 1.5 h; no significant loss (<20%) after 3 h”.
Take `CC(=O)N[C@H](Cc1ccccc1)C(=O)N[C@@H](CCC(N)=O)C(=O)N[C@@H](Cc1c[nH]c2ccccc12)C(=O)N[C@@H](C)C(=O)N[C@H](C(=O)NCC(=O)N[C@@H](Cc1c[nH]cn1)C(=O)N[C@@H](CC(C)C)[C@@H](O)CC(=O)N[C@@H](CC(C)C)C(N)=O)C(C)C` [FP1]: the IC50 in series [4], in series [5] and in series [6] was above 100 µM throughout.
As to `CCCC[C@H](NC(=O)C(C)(C)NC(=O)[C@H](Cc1c[nH]cn1)NC(=O)CCNC(=O)[C@@H](NC(=O)[C@H](C)NC(=O)[C@H](Cc1c[nH]c2ccccc12)NC(=O)[C@H](CCC(N)=O)NC(=O)[C@@H](Cc1ccccc1)NC(=O)[C@H](Cc1ccc(O)cc1)NC(=O)[C@H](CCCNC(=N)N)NC(=O)[C@H](CCCNC(=N)N)NC(=O)[C@H](CC(C)C)NC(=O)CON=C(C)[C@]1(O)Cc2c(O)c3c(c(O)c2[C@@H](O[C@H]2C[C@H](N)[C@H](O)[C@H](C)O2)C1)C(=O)c1c(OC)cccc1C3=O)C(C)C)C(N)=O` ({Daunorubicin(13-NOCH2CO)}-LRRY[dF]QWAV[βAla]H[Aib][Nle]-NH2), the time to release of active metabolite Dau=Aoa-Leu-OH was below 30 min.
As to Dau=Aoa-LRRY-fQWAV-β-Ala-H-Aib-Nle, in series [1], the cleaved bond entry was “Leu-Arg, 15 min” and the fragment found result is recorded as “Dau=Aoa-LR-OH; also recorded: H2N-RY-fQWAV-β-Ala-H-Aib-Nle-NH2; also recorded: H2N-Y-fQWAV-β-Ala-H-Aib-Nle-NH2; also recorded: H2N-RY-fQW-OH”.
